Key:
[1] = tested on: OVA-specific OT-2 T cells; test: In vivo suppression assay, OT-2 T cell responses to OVA immunization; details: oral 1MT with pDNA/PEI, OVA-immunized B6 mice
Experimental: CFSE-labeled OVA-specific T cells from OT-1 or OT-2 donor mice were injected (i/v) into recipient B6 mice at least 1 day before immunization. CFSE labeling was performed by incubating MACS-enriched splenic CD8+ (OT-1) or CD4+ (OT-2) T cells at ˜10×10^6 cells/ml in PBS with 2 μM CFSE at 37° C. for 15 mins Cells were washed in PBS and injected into recipients (i/v). Mice were then immunized with […] erythrocyte-free spleen cells from Act-mOVA transgenic mice (s/c), and treated with pDNA/PEI nanoparticles and oral 1MT as indicated in FIG. 3.
Cells were stained with the following antibodies; anti-CD4 (clone RM4-5), anti-Thy1.1 (clone OX-7), anti-NK1.1 (clone PK136), anti-CD49b (clone DX5), anti-IFNγ (clone XMG1.2) from Pharmingen-BD-Biosciences (San Jose, Calif.), and analyzed using a LSR2 flow cytometer (Becton-Dickinson). CFSE was purchased from Invitrogen. For detecting intracellular IFNγ, cells were surface stained with anti-NK1.1 and anti-DX5, fixed with cytofix/cytoperm, washed with Perm/Wash solution (BD Bioscience) and stained with anti-IFNγ. Some cells were incubated in RPMI with 1 μM of brefeldin (BD Bioscience) for 3 hrs. with no further stimulations to accumulate cytokine before staining. For detecting IFNγ in OT-2 T cells, dLN cells were stimulated with PMA/ionomycin for 2 hrs. with brefeldin. […]

OT-1 T cells = test: DC suppression assay (splenic DCs from treated mice with OT-1 T cells); assay type: in vivo; details: DCs from pDNA/PEI-treated B6 mice, 1MT 100 μM
Experimental: MACS-enriched splenic DCs (CD11c+) and Tregs (CD4+CD25+) were isolated according to manufacturer's instructions, except that cells were incubated with beads at RT (Magnetic Cell Separation Technology (MACS)—Miltenyi Biotec Inc., Auburn, Calif.). T cell stimulatory activity of DCs was assessed by culturing graded numbers of DCs (X-Y) with responder (MACS-enriched) CD8+ T cells from OT-1 (+SIINFEKL peptide) (SEQ ID NO:1) TCR-Tg mice+/−1MT as described (11). Suppressor activity of splenic Tregs was assessed by culturing graded numbers of Tregs with responder A1 (H-Y-specific) T cells, APCs (female CBA) and male (H-Y) peptide; a cocktail of anti-PD-1, anti-PD-L1, and anti-PD-L2 mAbs was added to some cultures to block PD-1-PD-L interactions as described (Baban, et al., J Immunol, 183:2475-2483 (2009), Sharma, et al., J Clin Invest 117:2570-2582 (2007)).
Assays to detect IDO-dependent T cell regulatory phenotypes in splenic DCs were performed as previously described. Briefly, MACS enriched (CD11c^+) spleen cells were cultured for 72 hours with MACS-enriched CD8α^+ T cells from OT-1 TCR transgenic mice and OVA257-264 peptide (SIINFEKL (SEQ ID NO:1)), 100 nM). Proliferation was assessed by adding 1 μCi methyl-[^3H]-thymidine for the final 6 hours and quantified using a BetaPlate counter (Wallac). […] Proliferation was assessed as described above. […]

[2] = tested on: B6 mice (mBSA-induced arthritis); test: mBSA-induced arthritis model; assay type: in vivo; details: local joint inflammation
Experimental: B6 mice were sensitized with methylated BSA (mBSA, s/c, […] in CFA (day 0). Booster injections of mBSA in IFA were given on days 7 and 14, and arthritis was induced on day 21 by intra-articular injection of mBSA (10 μg in PBS, challenge).
Arthritis severity was evaluated by measuring joint swelling, neutrophil infiltration, and histological analysis as described (Lemos, et al., Proc Natl Acad Sci USA, 106:5954-5959 (2009)). In brief, joint swelling was assessed using a vernier caliper, and was expressed as the increase in diameter (mm) relative to non-inflamed joints in each mouse at experimental starting points. Neutrophils were counted after harvesting cells from articular cavities 24 hours after mBSA challenge. Results were presented as neutrophil numbers per cavity (mean±SEM). Arthritis was analyzed histologically 28 days after initial immunization (experimental endpoints). Knee joints were dissected and fixed in 10% buffered formalin for 3 days. […] Sections were examined by two independent observers and graded blindly using a semi-quantitative score from 0 to 3 (0, no; 1, mild; 2, moderate; 3, severe alterations) for the extent of (a) synovial lining layer hyperplasia and (b) infiltration of leukocytes into synovial membrane/joint space (as measures of joint inflammation); and (c) pannus formation and necrosis/erosion of cartilage (as a measure of joint destruction). […]

NODf mice = test: Type I diabetes onset in NOD female mice; assay type: in vivo; details: oral 1MT, no other treatment
From the text: IDO slows T1D progression in a subset of NODf mice (FIG. 10 (-▴-)), as IDO inhibitor accelerated disease onset in at least 50% of NOD female mice.

## Cn1cc(C[C@@H](N)C(=O)O)c2ccccc21 [1MT, 1-methyl-[D]-tryptophan]
[1]
  effect of IDO inhibitor on suppressive effects of DNP treatment: abrogated
OT-1 T cells
  effect of adding 1MT on T cell responses: restored robust T cell responses
[2]
  effect of oral 1MT on ameliorative effects of pAT/PEI therapy: reversed
NODf mice
  mice that developed diabetes faster than control: 50%
NODf mice; listed as IDO inhibitor
  mice that developed diabetes faster than control: at least 50%
